Results as given in US9386769B2 (HUNAN RESEARCH INSTITUTE OF CHEMICAL INDUSTRY CO., LTD., priority 2011, dated 2016).
Where two headings read alike, the source gives them in different places.

Columns and labels:
[1] = test system: Fusarium oxysporum; assay: Fungicidal activity against Fusarium oxysporum; type: cell-based; conditions: 25 mg/L
Procedure: (§1) Bioassay method: Stock solution of every test compound was prepared in an appropriate solvent such as N,N-dimethylformamide (DMF), and then diluted to the required test concentrations with sterile water containing 0.1% Tween 80; Pipetted 3 mL of test solution to 27 mL of potato dextrose agar (PDA) medium at 45° C. and poured into a Petri dish to prepare a plate after shaking thoroughly; 6 mm of diameter of fungi cake from the edge of 7-day-old […] colony was inoculated on the central of the plate, wherein mycelium facing down, and cultured in the culture tank at 28° C. The diameter of fungi spread was calculated 4 days later using the control group tested with the diluent only. Test was run 4 times. Data were subjected to EXCEL statistical software analysis and the growth inhibition of the tested compound was calculated according to the corresponding control, the activity was rated on the basis of percentage of growth inhibition using the following rating system: A, inhibition (%)>90; B, 90≧inhibition (%)>70; C, 70≧inhibition (%)>50; D, inhibition (%)≦50.

[2] = test system: Marssonina coronaria; assay: Fungicidal activity against Marssonina coronaria; type: cell-based; conditions: 25 mg/L
Procedure: as §1

[3] = test system: Aphis fabae; assay: Insecticidal activity against Aphis fabae, dipping of horsebean seedlings; type: in vivo; conditions: 24 h
Procedure: Bioassay method: Stock solution of every test compound was prepared in an appropriate solvent such as N,N-dimethylformamide, and a small amount of Tween 80 was added as emulsification agent, then diluted to the required test concentrations with distilled water, using the control group tested with distilled water only. More than 20 adults of Aphis fabae were transferred to newly unearthed horsebean seedlings and 24 hr later, horsebean seedlings with Aphis fabae were dipped in the test solution for 5 s, then allowed to dry with filter paper, transplanted to the absorbent sponge and covered with a glass tube, then kept in a room for normal cultivation. Each assay contained three replications, and results were averaged. Mortality was assessed 24 hr after the treatment. The activity was rated to A, B, C or D according to the rating system in Example 22.

[4] = test system: Alternaria mali; assay: Fungicidal activity against Alternaria mali; type: cell-based; conditions: 25 mg/L
Procedure: as §1

[5] = test system: Botrytis cinerea; assay: Fungicidal activity against Botrytis cinerea, mycelial growth inhibition on PDA plate; type: cell-based; conditions: Botrytis cinerea; for inhibition at 2.5 µg/mL: 2.5 mg/L; for inhibition at 5 µg/mL: 5 mg/L
Procedure: as §1
Fungicidal activities against Botrytis cinerea of compounds represented by the general formula (I) were evaluated with the corresponding method in Example 18, and some of the test results are shown in Table 6 to Table 8.

[6] = test system: Alternaria solani; assay: Fungicidal activity against Alternaria solani; type: cell-based; conditions: 25 mg/L
Procedure: as §1

[7] = test system: Alternaria solani, Fusarium oxysporum, Marssonina coronaria, Sphaceloma ampelinum, Apple canker, Cercospora arachidicola and Alternaria mali; assay: Fungicidal activities against several pathogens (Example 21), comparison with Procymidone; type: cell-based; conditions: several pathogens of Example 21
Procedure: as §1

[8] = test system: Sphaceloma ampelinum; assay: Fungicidal activity against Sphaceloma ampelinum; type: cell-based; conditions: 25 mg/L
Procedure: as §1

[9] = test system: Alternaria alternata; assay: Fungicidal activity against Alternaria alternata, mycelial growth inhibition on PDA plate; type: cell-based; conditions: Alternaria alternata
Procedure: as §1
Fungicidal activities against Alternaria alternata of compounds represented by the general formula (I) were evaluated with the corresponding method in Example 18, and some of the test results are shown in Table 9 to Table 10.

[10] = test system: Sclerotinia sclerotiorum; assay: Fungicidal activity against Sclerotinia sclerotiorum, mycelial growth inhibition on PDA plate; type: cell-based; conditions: Sclerotinia sclerotiorum; for inhibition at 2.5 µg/mL: 2.5 mg/L; for inhibition at 5 µg/mL: 5 mg/L
Procedure: as §1

[11] = test system: Cercospora arachidicola; assay: Fungicidal activity against Cercospora arachidicola; type: cell-based; conditions: 25 mg/L
Procedure: as §1

[12] = read-out: activities against Aphis fabae (mortality)
[13] = Table 7, read-out: activities against Botrytis cinerea (growth inhibition)
[14] = Table 8, read-out: activities against Botrytis cinerea (growth inhibition)
[15] = Table 4, read-out: activities against Sclerotinia sclerotiorum (growth inhibition)
[16] = Table 5, read-out: activities against Sclerotinia sclerotiorum (growth inhibition)

Structure (SMILES): CCN(Cc1cnc(Cl)s1)c1nc(OC)ccc1[N+](=O)[O-] [Compound 05, 6-methoxy-N-((2-chlorothiazole-5-yl)methyl)-N-ethyl-3-nitropyridin-2-amine]
- activity against Fusarium oxysporum [1]: 38%
- activity against Marssonina coronaria [2]: 78%
- mortality at 500 µg/mL ([3]; read-out: activities against Aphis fabae (mortality rating)): > 90%
- mortality at 6.25 µg/mL [3, 12]: 12.7%
- mortality at 25 µg/mL [3, 12]: 46.5%
- mortality at 100 µg/mL [3, 12]: 87.5%
- activity against Alternaria mali [4]: 82%
- inhibition at 0.1562 µg/mL ([5]; 0.1562 mg/L, Table 8, read-out: activities against Botrytis cinerea (growth inhibition)): 78%
- inhibition at 0.3125 µg/mL ([5]; 0.3125 mg/L, Table 8, read-out: activities against Botrytis cinerea (growth inhibition)): 84%
- inhibition at 0.625 µg/mL ([5]; 0.625 mg/L, Table 8, read-out: activities against Botrytis cinerea (growth inhibition)): 88%
- inhibition at 1.25 µg/mL ([5]; 1.25 mg/L, Table 7, read-out: activities against Botrytis cinerea (growth inhibition)): 89%
- inhibition at 1.255 µg/mL ([5]; 1.255 mg/L, Table 8, read-out: activities against Botrytis cinerea (growth inhibition)): 94%
- inhibition at 2.5 µg/mL [5, 13]: 92%
- inhibition at 2.5 µg/mL [5, 14]: 98%
- inhibition at 5 µg/mL [5, 13]: 97%
- inhibition at 5 µg/mL [5, 14]: 100%
- inhibition at 10 µg/mL ([5]; 10 mg/L, Table 7, read-out: activities against Botrytis cinerea (growth inhibition)): 100%
- inhibition at 25 µg/mL ([5]; 25 mg/L, read-out: activities against Botrytis cinerea (growth inhibition rating)): > 90%
- activity against Alternaria solani [6]: 87%
- fungicidal activity compared with the commercial fungicide Procymidone [7]: better than or equal to that of the commercial fungicide Procymidone
- activity against Sphaceloma ampelinum [8]: 93%
- inhibition at 2.5 µg/mL ([9]; 2.5 mg/L, read-out: activities against Alternaria alternata (growth inhibition)): 45%
- inhibition at 5 µg/mL ([9]; 5 mg/L, read-out: activities against Alternaria alternata (growth inhibition)): 75%
- inhibition at 10 µg/mL ([9]; 10 mg/L, read-out: activities against Alternaria alternata (growth inhibition)): 81%
- inhibition at 25 µg/mL ([9]; 25 mg/L, read-out: activities against Alternaria alternata (growth inhibition rating)): 70 to 90%
- inhibition at 0.1562 µg/mL ([10]; 0.1562 mg/L, Table 5, read-out: activities against Sclerotinia sclerotiorum (growth inhibition)): 63%
- inhibition at 0.3125 µg/mL ([10]; 0.3125 mg/L, Table 5, read-out: activities against Sclerotinia sclerotiorum (growth inhibition)): 63%
- inhibition at 0.625 µg/mL ([10]; 0.625 mg/L, Table 5, read-out: activities against Sclerotinia sclerotiorum (growth inhibition)): 68%
- inhibition at 1.25 µg/mL ([10]; 1.25 mg/L, Table 4, read-out: activities against Sclerotinia sclerotiorum (growth inhibition)): 95%
- inhibition at 1.255 µg/mL ([10]; 1.255 mg/L, Table 5, read-out: activities against Sclerotinia sclerotiorum (growth inhibition)): 73%
- inhibition at 2.5 µg/mL [10, 15]: 99%
- inhibition at 2.5 µg/mL [10, 16]: 90%
- inhibition at 5 µg/mL [10, 15]: 100%
- inhibition at 5 µg/mL [10, 16]: 96%
- inhibition at 10 µg/mL ([10]; 10 mg/L, Table 4, read-out: activities against Sclerotinia sclerotiorum (growth inhibition)): 100%
- inhibition at 25 µg/mL ([10]; 25 mg/L, read-out: activities against Sclerotinia sclerotiorum (growth inhibition rating)): > 90%
- activity against Cercospora arachidicola [11]: 88%
